Test system: MAb 2G12 binding to HIV-1IIIB gp120
Assay: Competitive ELISA: inhibition of 2G12 binding to immobilized gp120 by carbohydrate antigens
Design: species or system human
Settings: for Relative Affinity, Molar basis / Relative Affinity, Valency-corrected: Table 1; for Relative Affinity, Molar basis: from IC50, relative to Man9GlcNAc2Asn = 1.0; for Relative Affinity, Valency-corrected: from IC50, relative to Man9GlcNAc2Asn = 1.0, per oligosaccharide subunit; for affinity for 2G12 binding, Man9GlcNAc compared with Man9GlcNAc2Asn: result in words
Protocol: Competitive ELISAs were performed to determine the relative inhibition potency of various carbohydrate antigens against the binding of 2G12 to gp120. Microtiter plates were coated with human cell line 293-expressed HIV-1IIIB gp120 (100 ng/ml) overnight at 4° C. After washing, non-specific binding was blocked with 5% BSA in PBS for 1 h at room temperature. The plates were then washed three times with 0.1% Tween-20/PBS. Serial dilutions (1:2) of various carbohydrate antigens were mixed with an equal volume of MAb 2G12 (fixed final concentration of 5 ng/ml) and added to the plates. The plates were incubated for 1 h at 37° C. and washed with washing buffer. To the plates was added a 100-μl solution of 1:3000 diluted horseradish peroxidase-conjugated goat anti-human IgG in 0.5% BSA/PBS. After incubation for 1 h at 37° C., the plates were washed again and a 100-μl solution of 3,3′,5,5′-tetramethyl benzidine (TMB) was added. Color was allowed to develop for 5 min, and the color reaction was quenched through adding a 100-μl solution of 0.5 M H2SO4 to each well. The optical density was then measured at 450 nm.
The binding affinity of the high-mannose oligosaccharides was examined by competitive inhibition of 2G12 binding to immobilized gp120, as shown in FIG. 14.
The synthetic Man9-clusters were examined for competitive inhibition of 2G12 binding to immobilized gp120 (FIG. 16).

CC(=O)N[C@H]1C(O)O[C@H](CO)[C@@H](O[C@@H]2O[C@H](CO[C@H]3O[C@H](CO[C@H]4O[C@H](CO)[C@@H](O)[C@H](O)[C@@H]4O)[C@@H](O)[C@H](O[C@H]4O[C@H](CO)[C@@H](O)[C@H](O)[C@@H]4O)[C@@H]3O)[C@@H](O)[C@H](O[C@H]3O[C@H](CO)[C@@H](O)[C@H](O)[C@@H]3O)[C@@H]2O)[C@@H]1O (stereo partly drawn) [Man5GlcNAc]
Relative Affinity, Molar basis: 0.004
Relative Affinity, Valency-corrected: 0.004

CC(=O)N[C@@H]1[C@@H](O)[C@H](O[C@@H]2O[C@H](CO)[C@@H](O[C@@H]3O[C@H](CO[C@H]4O[C@H](CO[C@H]5O[C@H](CO)[C@@H](O)[C@H](O)[C@@H]5O[C@H]5O[C@H](CO)[C@@H](O)[C@H](O)[C@@H]5O)[C@@H](O)[C@H](O[C@H]5O[C@H](CO)[C@@H](O)[C@H](O)[C@@H]5O[C@H]5O[C@H](CO)[C@@H](O)[C@H](O)[C@@H]5O)[C@@H]4O)[C@@H](O)[C@H](O[C@H]4O[C@H](CO)[C@@H](O)[C@H](O)[C@@H]4O[C@H]4O[C@H](CO)[C@@H](O)[C@H](O)[C@@H]4O[C@H]4O[C@H](CO)[C@@H](O)[C@H](O)[C@@H]4O)[C@@H]3O)[C@H](O)[C@H]2NC(C)=O)[C@@H](CO)O[C@H]1NC(=O)C[C@H](N)C(=O)O [Man9GlcNAc2Asn]
Relative Affinity, Molar basis: 1.0
Relative Affinity, Valency-corrected: 1.0
affinity for 2G12 binding, Man9GlcNAc compared with Man9GlcNAc2Asn: essentially the same affinity

CC(=O)N[C@H]1C(O)O[C@H](CO)[C@@H](O[C@@H]2O[C@H](CO[C@H]3O[C@H](CO[C@H]4O[C@H](CO)[C@@H](O)[C@H](O)[C@@H]4O[C@H]4O[C@H](CO)[C@@H](O)[C@H](O)[C@@H]4O)[C@@H](O)[C@H](O[C@H]4O[C@H](CO)[C@@H](O)[C@H](O)[C@@H]4O[C@H]4O[C@H](CO)[C@@H](O)[C@H](O)[C@@H]4O)[C@@H]3O)[C@@H](O)[C@H](O[C@H]3O[C@H](CO)[C@@H](O)[C@H](O)[C@@H]3O[C@H]3O[C@H](CO)[C@@H](O)[C@H](O)[C@@H]3O[C@H]3O[C@H](CO)[C@@H](O)[C@H](O)[C@@H]3O)[C@@H]2O)[C@@H]1O (stereo partly drawn) [Man9GlcNAc]
Relative Affinity, Molar basis: 0.84
Relative Affinity, Valency-corrected: 0.84
fold more effective in inhibition of 2G12 binding than Man5GlcNAc (on a molar basis, versus Man5GlcNAc): 244 fold
fold more effective in inhibition of 2G12 binding than Man6GlcNAc (on a molar basis, versus Man6GlcNAc): 85 fold
affinity for 2G12 binding, Man9GlcNAc compared with Man9GlcNAc2Asn: essentially the same affinity

Man6GlcNAc
Relative Affinity, Molar basis: 0.012
Relative Affinity, Valency-corrected: 0.012

From US7556806B2, “Carbohydrate-based synthetic vaccines for HIV” (University of Maryland Biotechnology Institute, priority 2002, dated 2009)
